Data taken from paper PMC11840605, “Crystallographic and Thermodynamic Evidence of Negative Coupling in the Flavin-Dependent Tryptophan Halogenases AbeH and BorH” (ACS Omega, 2025).
Where two headings read alike, the source gives them in different places.

Key:
BorF = details: read-out: KD, flavin binding to BorF; cited from earlier work
AbeH/Trp = AbeH/Trp (uncultured bacterium, UniProt F6LWA5); assay: FAD fluorescence quenching titration with AbeH preincubated with Trp; format: binding, uncultured soil actinomycetes
Experimental: Quenching of FAD fluorescence quenching upon binding to AbeH was measured in the absence and presence of Trp in 20 mM Tris-HCl pH 8.0 and 100 mM NaCl using a Quantmaster 40 fluorimeter (Photon Technologies International). Trp and FAD solutions were prepared in 20 mM Tris-HCl pH 8, and concentrations were determined by absorbance at 280 and 450 nm, respectively. FAD fluorescence was measured using excitation at 450 nm (4 nm slit opening) and emission set at 525 nm (6 nm slit opening) using a fluorescence cuvette to collect 50 scans, which were averaged later during data processing in Microsoft Excel. […] Raw fluorescence intensities were corrected for the buffer, Trp, and AbeH background contributions. Quenched fluorescence intensity was plotted vs AbeH concentration and fit to eq 1 using GraphPad Prism 8.0 by nonlinear regression analysis. In eq 1, F = fractional saturation, ΔF = fluorescence quenching upon AbeH/FAD complex formation (calculated from the difference of FAD fluorescence intensity at different AbeH concentration), ΔFmax = maximum fluorescence change obtained from fit, [AbeHFAD] = FAD-bound AbeH, [AbeH]T = Total AbeH concentration, [FAD]T = Total FAD concentration, KD = equilibrium dissociation constant. […]
A. Fluorescence quenching observed from binding of Apo-AbeH ([…]) to […] FAD; […]

BorH = BorH (uncultured bacterium, UniProt M9QSI0); assay: Isothermal titration calorimetry, ligand into BorH; format: binding, uncultured soil actinomycetes
Experimental: (§1) Solutions of AbeH, BorH, FAD (Chem-Implex), and Trp (Acros Organics) were prepared in the same buffer and degassed under vacuum at 30 °C for 20 min before loading in the syringe or cell. To analyze formation of binary complexes, AbeH or BorH was placed inside the cell, and ligand (FAD or Trp) was injected. For ternary complex titration, one ligand was preincubated with the macromolecule for 30 min at 30 °C to form binary complexes of AbeH/FAD, AbeH/Trp, BorH/FAD, and BorH/Trp before titrating with the second ligand. To test FADH2 binding to AbeH and BorH, FAD was reduced to FADH2 using sodium dithionite and stored under N2. Formation of FADH2 by sodium dithionite was verified using absorbance and fluorescence spectrophotometry.
(§2) ITC experiments were performed with reference power set to 10 μcal/s and Milli-Q water in the reference cell. All experiments were done with a pretitration delay of 20 min, a 5 min interval between injections, and a filter period of 2 s in high feedback gain mode. All experiments were performed at 310 rpm to mix the components in cell and titrant. All other VP-ITC instrumental parameters were set to default settings. Heats of dilution for all titrants were measured by titrating ligand into buffer for binary complex titrations, and by titrating ligand into a solution containing the other ligand but no protein for ternary complex titration.
(§3) Titrations were analyzed by manually integrating each injection, subtracting the heat of dilution, and carrying out nonlinear least-squares fit of the calorimetric binding data to a one-site model using Origin 7.0 (Origin Lab). Trp binding experiments were subtracted by point-by-point heat of dilution, and FAD and FADH2 binding experiments were subtracted using the mean heat of the last three injections. For the Trp binding data, n was fixed to 1 based on expected stoichiometry of 1:1 based on FDH crystal structures and as proposed for lower c-value titrations in the literature.[23],[25],[82] The other parameters were not constrained during fitting.

AbeH = AbeH (uncultured bacterium, UniProt F6LWA5); assay: Isothermal titration calorimetry, ligand into AbeH; format: binding, uncultured soil actinomycetes
Experimental: as §1, with “ITC experiments were performed using a VP-ITC isothermal titration calorimeter (MicroCal) in 20 mM HEPES pH 7.5, 350 mM NaCl, 1 mM ethylenediamine tetraacetic acid (EDTA) and 15% (v/v) glycerol. Solutions” for “Solutions”
as §2
1.2 mM FAD (2 μL/1 and 5 μL/19 injections) into 18 μM AbeH (Figure 4A)
0.12 mM FADH2 (2 μL/1 and 15 μL/19 injections) into 7 μM AbeH in the presence of sodium dithionite (Figure 4B)
1.4 mM Trp (3 μL/1 and 10 μL/29 injections) into 43 μM AbeH (Figure S7)
16 mM Trp (2 μL/1 and 10 μL/29 injections) into 18 μM AbeH (Figure 5A)
as §3

[1] = ITC, read-out: KD, binding to BorH, ITC

Chain of AbeH (F6LWA5 entry or part of it): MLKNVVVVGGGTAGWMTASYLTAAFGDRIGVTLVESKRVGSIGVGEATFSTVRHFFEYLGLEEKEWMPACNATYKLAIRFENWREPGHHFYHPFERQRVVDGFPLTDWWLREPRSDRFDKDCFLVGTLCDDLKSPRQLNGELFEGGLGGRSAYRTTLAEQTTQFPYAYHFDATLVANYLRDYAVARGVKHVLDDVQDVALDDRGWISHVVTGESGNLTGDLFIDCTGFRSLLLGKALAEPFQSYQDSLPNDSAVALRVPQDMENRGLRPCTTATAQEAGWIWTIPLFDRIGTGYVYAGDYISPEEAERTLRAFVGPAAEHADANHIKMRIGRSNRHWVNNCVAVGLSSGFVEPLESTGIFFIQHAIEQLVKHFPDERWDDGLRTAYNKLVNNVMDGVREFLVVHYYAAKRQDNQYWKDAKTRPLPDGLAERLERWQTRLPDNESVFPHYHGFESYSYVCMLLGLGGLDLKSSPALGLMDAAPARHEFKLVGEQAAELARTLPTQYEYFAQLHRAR
Chain of BorH (M9QSI0 1-529): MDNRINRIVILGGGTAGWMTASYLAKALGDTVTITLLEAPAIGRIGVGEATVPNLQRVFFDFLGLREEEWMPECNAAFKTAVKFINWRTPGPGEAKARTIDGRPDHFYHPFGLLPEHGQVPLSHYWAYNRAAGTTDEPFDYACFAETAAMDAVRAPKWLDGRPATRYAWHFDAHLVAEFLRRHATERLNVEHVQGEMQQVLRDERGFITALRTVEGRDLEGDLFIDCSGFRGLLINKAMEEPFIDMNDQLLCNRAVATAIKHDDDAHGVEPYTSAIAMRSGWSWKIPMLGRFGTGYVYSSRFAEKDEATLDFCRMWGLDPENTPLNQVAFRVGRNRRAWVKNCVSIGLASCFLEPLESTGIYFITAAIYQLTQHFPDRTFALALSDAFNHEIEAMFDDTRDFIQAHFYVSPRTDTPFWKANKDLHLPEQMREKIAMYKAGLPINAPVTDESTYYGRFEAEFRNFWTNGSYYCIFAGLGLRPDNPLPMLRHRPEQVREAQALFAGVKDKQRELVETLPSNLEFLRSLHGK
Chain of AbeH/Trp (F6LWA5 entry or part of it): as the sequence (F6LWA5 entry or part of it) above

Structure (SMILES) | Kd (BorH; [1]) | -TDS (-TΔS, ITC, Table S3) (BorH; cell BorH) | DG (ΔG, ITC, Table S3) (BorH; cell BorH) | DH (ΔH, ITC, Table S3) (BorH; cell BorH) | -TDS (-TΔS, ITC, Table S3) (AbeH; cell AbeH) | DG (ΔG, ITC, Table S3) (AbeH; cell AbeH) | DH (ΔH, ITC, Table S3) (AbeH; cell AbeH) | other results
Cc1cc2nc3c(=O)[nH]c(=O)nc-3n(C[C@H](O)[C@H](O)[C@H](O)COP(=O)(O)OP(=O)(O)OC[C@H]3O[C@@H](n4cnc5c(N)ncnc54)[C@H](O)[C@@H]3O)c2cc1C [FAD] | 13 ± 3.3 µM | 4.7 kcal/mol | -6.7 kcal/mol | -11.4 ± 0.4 kcal/mol | -3.6 kcal/mol | -8.2 kcal/mol | -4.6 ± 0.4 kcal/mol | Kd (BorF): 0.1 µM; Kd (AbeH/Trp; AbeH/FAD KD, FAD fluorescence quenching (Figure S10 B), in the presence of 0.3 mM Trp): 3.1 µM; Kd (AbeH/Trp; KD, FAD binding to AbeH/Trp, FAD fluorescence, AbeH preincubated with Trp): 7.7 ± 2.2 µM; n (ITC, Table S3) (BorH; cell BorH): 1.1 ± 0.4; Kd (AbeH; ITC, read-out: KD, binding to AbeH, ITC): 1.2 ± 0.4 µM; n (ITC, Table S3) (AbeH; cell AbeH): 0.93 ± 0.05
N[C@@H](Cc1c[nH]c2ccccc12)C(=O)O [Tryptophan, L-tryptophan] | 430 ± 60 µM | -0.5 kcal/mol | -4.6 kcal/mol | -4.1 ± 0.3 kcal/mol | 0.4 kcal/mol | -4.3 kcal/mol | -4.7 ± 0.4 kcal/mol | Trp affinity of BorH higher than that of AbeH (BorH): 2 fold; Trp affinity of BorH lower than the FAD affinity (BorH): 30 ×; Kd (BorH; cell BorH, read-out: KD (ITC, Table S3)): 435 µM; Kd (BorH; one-site model, n fixed to 1, read-out: KD for Trp/BorH, ITC): 400 µM; Trp affinity of AbeH lower than the FAD affinity (AbeH): 500 ×; Kd (AbeH; KD (ITC, Table S3), cell AbeH): 833 µM; Kd (AbeH; KD for Trp/AbeH, ITC, one-site model, n fixed to 1): 800 µM; Heat of binding, Trp titrated into AbeH at low molar ratios (AbeH; Trp:AbeH molar ratios between 0-9, 1.4 mM Trp into 43 μM AbeH): no significant heat of binding detected
